Some test systems named below: KM12 colon; K-562 leukemia; MCF7 breast; SK-OV-3 ovarian; OVCAR-4 ovarian; HT29 colon; HOP-62 NSCLC; HL-60(TB) leukemia; MDA-MB-435; TK-10 renal; SNB-19 CNS; MALME-3M melanoma; U251 CNS; RXF 393 renal; RPMI-8226 leukemia; SK-MEL-5 melanoma; ACHN renal.
Holding throughout (assay): NCI tumour cell line growth inhibition, 48 h

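A five-concentration, 48-hour dose response in 96-well plates underlies each endpoint, interpolated linearly between surrounding concentrations. TGI marks complete inhibition of growth.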

As to `N=C1/C(=C/c2ccccc2)C(=O)N=C2SC=NN12`, the TGI in the assay on KM12 colon, in the assay with K-562 leukemia, in the assay on MCF7 breast, with SK-OV-3 ovarian, in the assay with OVCAR-4 ovarian and in the assay with HT29 colon was greater than 100 µM each time. For the same compound, the TGI in the assay on HOP-62 NSCLC, in the assay on HL-60(TB) leukemia, in the assay with MDA-MB-435, in the assay with TK-10 renal, with SNB-19 CNS and with MALME-3M melanoma was greater than 100 µM each time. Also, the TGI in the assay on U251 CNS, in the assay with RXF 393 renal, in the assay with RPMI-8226 leukemia, in the assay on SK-MEL-5 melanoma and with ACHN renal was greater than 100 µM in each case.
Regarding `CC(C)CNC(=O)c1c(NC(=O)c2ccccc2)sc2[nH]c(=O)n(-c3ccccc3)c(=O)c12`, the TGI in the assay on KM12 colon is greater than 100 µM; with K-562 leukemia, greater than 86.9 µM; in the assay on MCF7 breast, greater than 100 µM; with SK-OV-3 ovarian, greater than 81.2 µM; with OVCAR-4 ovarian, greater than 100 µM; in the assay on HT29 colon, greater than 100 µM. Moreover, the TGI with HOP-62 NSCLC was 49.1 µM; in the assay with HL-60(TB) leukemia, greater than 100 µM; in the assay on MDA-MB-435 it was greater than 100 µM; in the assay with TK-10 renal, 75 µM; with SNB-19 CNS, 75.8 µM; in the assay on MALME-3M melanoma it was greater than 100 µM. Also, the TGI was greater than 100 µM with U251 CNS; 40 µM with RXF 393 renal; greater than 100 µM with RPMI-8226 leukemia; greater than 100 µM in the assay on SK-MEL-5 melanoma; 61 µM in the assay with ACHN renal.
With `CC(=O)OCC1=C2C(OC(=O)C(C)C)CC3(COC(C)=O)OC3/C=C\C3(C)OC3C2OC1=O` (stereo not given), the TGI in the assay on KM12 colon, in the assay with K-562 leukemia, in the assay on MCF7 breast, with SK-OV-3 ovarian, in the assay on OVCAR-4 ovarian and in the assay with HT29 colon was greater than 100 µM throughout. The TGI in the assay on HOP-62 NSCLC, with HL-60(TB) leukemia, with MDA-MB-435, in the assay on TK-10 renal, in the assay on SNB-19 CNS and with MALME-3M melanoma was greater than 100 µM each time. Further, the TGI in the assay with U251 CNS, with RXF 393 renal, with RPMI-8226 leukemia, with SK-MEL-5 melanoma and in the assay on ACHN renal was greater than 100 µM in each case.
In the case of `[O-]/N=N\c1on[n+](CCc2ccccc2)c1Cc1c(/N=N/[O-])on[n+]1CCc1ccccc1`, the TGI with KM12 colon is greater than 100 µM; in the assay on K-562 leukemia it was 65 µM; in the assay on MCF7 breast, greater than 100 µM; in the assay on SK-OV-3 ovarian, greater than 100 µM; with OVCAR-4 ovarian, 36.7 µM; with HT29 colon, greater than 100 µM. The TGI was 48.3 µM with HOP-62 NSCLC; greater than 100 µM in the assay on HL-60(TB) leukemia; greater than 100 µM with MDA-MB-435; 56.2 µM with TK-10 renal; 93.2 µM in the assay on SNB-19 CNS; 66.6 µM in the assay on MALME-3M melanoma. In addition, the TGI was 52.7 µM in the assay on U251 CNS; greater than 100 µM with RXF 393 renal; greater than 100 µM with RPMI-8226 leukemia; 88 µM with SK-MEL-5 melanoma; greater than 100 µM in the assay with ACHN renal.
For the compound `CC(=O)[C@H]1[C@@H](OCc2ccccc2)O[N+]([O-])=C(C)[C@@H]1c1ccccc1`, the TGI with KM12 colon is greater than 100 µM; in the assay with K-562 leukemia, 38 µM; with MCF7 breast it was greater than 100 µM; in the assay on SK-OV-3 ovarian it was greater than 100 µM; in the assay with OVCAR-4 ovarian it was greater than 100 µM; in the assay on HT29 colon it was 33.8 µM. Besides, the TGI with HOP-62 NSCLC was greater than 100 µM; in the assay on HL-60(TB) leukemia, 40.8 µM; with MDA-MB-435, greater than 100 µM; in the assay on TK-10 renal, greater than 100 µM; in the assay with SNB-19 CNS it was greater than 100 µM; with MALME-3M melanoma, 47 µM. The TGI in the assay with U251 CNS is greater than 100 µM; in the assay on RXF 393 renal, 34.2 µM; in the assay with RPMI-8226 leukemia, 37.9 µM; in the assay with SK-MEL-5 melanoma it was greater than 100 µM; with ACHN renal, 78.4 µM.
Regarding `CCOC(=O)C(Cc1ccc2c(c1)CCC2)Cc1ccc2c(c1)CCC2`, the TGI was 85.7 µM in the assay with K-562 leukemia; greater than 100 µM in the assay with MCF7 breast; greater than 100 µM in the assay on SK-OV-3 ovarian; greater than 100 µM in the assay on OVCAR-4 ovarian; greater than 100 µM with HT29 colon; greater than 100 µM in the assay on HOP-62 NSCLC. Also, the TGI is 58.2 µM in the assay with HL-60(TB) leukemia; greater than 100 µM with MDA-MB-435; greater than 100 µM with TK-10 renal; greater than 100 µM in the assay on SNB-19 CNS; greater than 100 µM in the assay on MALME-3M melanoma; greater than 100 µM in the assay on U251 CNS. In addition, the TGI is greater than 100 µM with RXF 393 renal, greater than 100 µM in the assay with RPMI-8226 leukemia, 40.3 µM with SK-MEL-5 melanoma and greater than 100 µM in the assay with ACHN renal.
`COC(=O)CCN1CCN(CCO)CC1C` (stereo not given): the TGI in the assay with KM12 colon, with K-562 leukemia, with MCF7 breast, in the assay with SK-OV-3 ovarian, in the assay on OVCAR-4 ovarian and in the assay on HT29 colon was greater than 10 µM throughout. The TGI with HOP-62 NSCLC, with HL-60(TB) leukemia, with MDA-MB-435, with TK-10 renal, in the assay with SNB-19 CNS and in the assay on MALME-3M melanoma was greater than 10 µM in each case. Also, the TGI with U251 CNS, with RXF 393 renal, in the assay on RPMI-8226 leukemia, with SK-MEL-5 melanoma and in the assay with ACHN renal was greater than 10 µM in each case.
In the case of `Oc1ccc(NCc2cc(O)ccc2O)cc1`, the TGI in the assay on KM12 colon came to 42 µM; in the assay on K-562 leukemia it was 55.2 µM; in the assay with MCF7 breast it was 34.2 µM; in the assay with SK-OV-3 ovarian, 36.7 µM; with OVCAR-4 ovarian it was 30.7 µM; with HT29 colon, 57.6 µM. Also, the TGI amounted to 35.7 µM in the assay on HOP-62 NSCLC; 11.7 µM in the assay with HL-60(TB) leukemia; 32 µM with MDA-MB-435; 30.4 µM in the assay on TK-10 renal; 35.1 µM in the assay with SNB-19 CNS; 34.3 µM with MALME-3M melanoma. The TGI in the assay with U251 CNS was 29.5 µM; in the assay with RXF 393 renal, 28.8 µM; in the assay with RPMI-8226 leukemia, 44.4 µM; with SK-MEL-5 melanoma, 38.9 µM; in the assay with ACHN renal, 29.6 µM.
